Key:
Format in all cases: binding
[1] = tested on: murine anti-PDC monoclonal antibody 2H4; assay: xenobiotic-peptide-agarose microarray, reactivity of mAb 2H4; settings: xenobiotic or lipoic acid coupled to PDC peptide-agarose
Excerpt: Synthesis of mimeotopes and coupling with peptide-agarose conjugate. Carboxylic acid derivatives of twenty-three xenobiotic compounds were used in this study. Compounds 1-19 were synthesized as described in Long, S. A. et al. J. Immunol. 2001, 167:2956 which is herein incorporated by reference in its entirety. The carboxylic acid derivatives are then reacted with NHS to form the corresponding NHS esters. These 23 compounds, in addition to lipoic acid with NHS ester, were coupled to the lysine residue on the PDC-E2 peptide-agarose conjugate as follows. Briefly, 0.4 mg of the PDC-E2 peptide-agarose conjugate and 10 μmol of each of the NHS esters were mixed in 40 μl of DMSO. Mixtures were incubated at room temperature for 2 hours. To ensure complete coupling, a quantitative ninhydrin test at 570 nm was performed.
(§1) Preparation of microarray and analysis of immunoreactivity. Xenobiotic compounds-peptide-agarose mixture were diluted (0.1%) in 0.1 M Na2CO3/NaHCO3 buffer (p)H 9.0), and transferred to 96 well plates. Thereafter mixtures were spotted onto glass slides (Mercedes Medical, Florida) using the Affymetrix 417 Microarrayer (Affymetrix, Santa Clara, Calif.). Each sample was spotted in triplicate, with a spot size of 150 μm in diameter. Spotted microarrays were stored at 4° C. until use. Before use, microarrays were blocked with 3% non-fat dry milk in PBS buffer for 1 hour at room temperature, and individual slides were thereafter incubated with diluted antibody samples (rabbit sera 1:250, murine anti-PDC monoclonal antibody 1:1) in 1 ml of blocking buffer (3% non-fat dry milk in PBS with 0.05% tween-20) (PBST) for 1 hour at room temperature. After thorough washes with PBST, 1 ml of the Cy3 conjugated secondary antibody (1 μg/ml) (Zymed Laboratories Inc. San Francisco, Calif.) in blocking buffer was added to each slide and incubated at room temperature for 30 min. Subsequently slides were washed in PBST for 10 min and in water for 15 sec. […] Mixtures of xenobiotics and agarose were also spotted and analyzed as controls. […]

rabbit sera IgG [2] = assay: microarray assay of rabbit sera IgG reactivity to small molecule-peptide-agarose conjugates; settings: sera (n=5) one month post-immunization, serially diluted; dilution of 1:6750 or lower; on PDC-E2 peptide
Procedure: as §1, with “min.” for “min. Subsequently slides were washed in PBST for 10 min and in water for 15 sec.”
Comparison between ELISA and microarray assay. Rabbit sera (n=5) at one month post-immunization were serially diluted (1:250, 1:750, 1:2250, 1:6750 and 1:20250) and IgG reactivity to small molecule-peptide-agarose conjugates were determined by both the ELISA and microarray assay. […] Likewise, IgG reactivity of rabbit sera at 0, 1, 6, 12 and 22 months post-immunization against recombinant human PDC-E2 protein (see Leung, P. S. et al. J. Immunol. 2003, 170:5326) and KLH (Sigma, St. Louis, Mo.) was determined at 1:100 sera dilution by standard ELISA.
Validation of peptide microarray assay. […] Rabbit sera (n=5) at one month post-immunization with human recombinant PDC-E2 were serially diluted and their IgG reactivity against 6-bromohexanoate, compound 9, lipoic acid on PDC-E2 peptide and non-lipoylated native PDC-E2 peptide were determined by both ELISA and microarray assay (FIG. 13). […]

rabbit sera IgG [3] = assay: ELISA of rabbit sera IgG reactivity to small molecule-peptide-agarose conjugates; settings: sera (n=5) one month post-immunization, serially diluted; dilution of 1:6750 or lower; on PDC-E2 peptide
Procedure: Comparison between ELISA and microarray assay. Rabbit sera (n=5) at one month post-immunization were serially diluted (1:250, 1:750, 1:2250, 1:6750 and 1:20250) and IgG reactivity to small molecule-peptide-agarose conjugates were determined by both the ELISA and microarray assay. Briefly, ELISA plates were coated with 50 μl of each individual xenobiotic compounds-peptide-agarose mixture in DMSO (1 mg/ml) for 2 hours at room temperature, then antigens were removed and plates dried overnight at room temperature. Dried ELISA plates were thereafter blocked with 3% non-fat dry milk in PBS and incubated with serially diluted rabbit sera for 1 hour at room temperature. After washing, the plates were incubated with HRP conjugated mouse anti-rabbit IgG (Zymed, San Francisco, Calif.) antibodies for 30 min at room temperature, washed and incubated with 2,2′-azino-bis(3-ethylbenzthiazoline-6-sulfonic acid) containing hydrogen peroxide (Kirkegaard & Perry Laboratories, Inc, MD). Likewise, IgG reactivity of rabbit sera at 0, 1, 6, 12 and 22 months post-immunization against recombinant human PDC-E2 protein (see Leung, P. S. et al. J. Immunol. 2003, 170:5326) and KLH (Sigma, St. Louis, Mo.) was determined at 1:100 sera dilution by standard ELISA.
Validation of peptide microarray assay. To validate the microarray assay, data obtained using the microarray and ELISA were compared. Rabbit sera (n=5) at one month post-immunization with human recombinant PDC-E2 were serially diluted and their IgG reactivity against 6-bromohexanoate, compound 9, lipoic acid on PDC-E2 peptide and non-lipoylated native PDC-E2 peptide were determined by both ELISA and microarray assay (FIG. 13). […] To validate the sensitivity of the microarray, four different concentrations (0.1%, 0.03%, 0.01% and 0.004%) of HA peptide ([…]) were spotted. Individual arrays were incubated with murine monoclonal anti-HA antibody or normal murine IgG followed by secondary antibody (goat anti-murine IgG) conjugated to Cy3.

[4] = tested on: murine monoclonal anti-HA antibody; assay: HA peptide microarray sensitivity validation with anti-HA monoclonal antibody

| Compound | reactivity of mAb 2H4 [1] | rabbit sera IgG reactivity, microarray assay (rabbit sera IgG [2]) | rabbit sera IgG reactivity, ELISA (rabbit sera IgG [3]) | anti-HA antibody concentration giving dose dependent response ([4]; HA peptide spotted at 0.1%, 0.03%, 0.01%) [ng/mL] | anti-HA antibody concentration required ([4]; lowest concentration of HA (0.004%)) [ng/mL] |
| --- | --- | --- | --- | --- | --- |
| DKATIGFEVQEE [non-lipoylated native PDC peptide, 12 mer PDC-E2 peptide on agarose, without xenobiotic or lipoic acid] | Weak reactivity | dilution dependent response | dilution dependent response |  |  |
| O=C(O)CCCC[C@@H]1CCSS1 (racemic) [lipoic acid] | bound strongly | dilution dependent response | dilution dependent response |  |  |
| O=C(O)CCCCCBr [6-bromohexanoate] | bound strongly | dilution dependent response | dilution dependent response |  |  |
| YPYDVPDYA [HA peptide] |  |  |  | ≥ 5 | > 50 |

Source: patent US20040235027A1, “Preparation and application of ligand-biopolymer conjugates” (Regent of the University of California, priority 2003, published 2004)
